{
  "source": "patent US20230071934A1",
  "about": "“NOVEL USES” (Intra-Cellular Therapies, Inc., priority 2019, published 2023)",
  "origin": "cited, not measured here",
  "biological_target": "T1, sEH (Homo sapiens, UniProt P34913)",
  "T1 sequence (P34913 1-555)": "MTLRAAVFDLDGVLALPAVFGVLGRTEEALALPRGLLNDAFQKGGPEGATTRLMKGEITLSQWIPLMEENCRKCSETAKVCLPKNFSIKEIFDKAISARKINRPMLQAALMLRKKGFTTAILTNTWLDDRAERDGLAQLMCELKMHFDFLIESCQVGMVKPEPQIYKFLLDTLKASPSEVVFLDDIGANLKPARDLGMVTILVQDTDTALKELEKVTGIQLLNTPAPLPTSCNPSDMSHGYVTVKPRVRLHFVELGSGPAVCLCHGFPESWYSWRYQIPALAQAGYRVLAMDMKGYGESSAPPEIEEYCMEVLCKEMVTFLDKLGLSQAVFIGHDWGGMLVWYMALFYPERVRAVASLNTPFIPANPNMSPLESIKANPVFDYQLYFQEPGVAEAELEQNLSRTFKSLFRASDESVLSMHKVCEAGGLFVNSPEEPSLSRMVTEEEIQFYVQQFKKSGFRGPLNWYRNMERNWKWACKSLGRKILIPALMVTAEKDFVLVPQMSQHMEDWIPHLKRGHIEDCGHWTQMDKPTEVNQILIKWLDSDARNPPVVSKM",
  "data": [
    {"smiles": "CCCCCCCCCCCCNC(=O)NC12CC3CC(CC(C3)C1)C2", "note": "[ADU, N-Adamantyl-N′-dodecyl urea]", "values": [
      {"measurement": "activity as an inhibitor of sEH", "result": "particularly high activity"}
    ]}
  ]
}
